# Source: the C3SDB collision cross section collection
# Conditions: [M+K]+; instrument: TW; calibrated with phosphatidylcholines (ESI+) and phosphatidylethanolamines (ESI-)
row,collision cross section (N2),SMILES
1,302.5 Å²,CCCCCCCCC=CCC=CCC=CCC(=O)OC[C@H](CO[C@@H]1O[C@H](CO[C@H]2O[C@H](CO)[C@H](O)C(O)C2O)[C@H](O)C(O)C1O)OC(=O)CC=CCC=CCC=CCCCCCCCC (stereo partly specified) [DGDG(18:3/18:3)]
2,293.6 Å²,CCCCCC/C=C\CCCCCCCCCC(=O)OC(COC(=O)CCCCCCCCCCCCCCC)COP(=O)([O-])OCC(O)COC(=O)C(C)[NH3+] (stereo unspecified) [AlaPG(34:1)]

# Same assay, conditions: [M+NH4]+; instrument: TW; calibrated with phosphatidylcholines (ESI+) and phosphatidylethanolamines (ESI-)
row,collision cross section (N2),SMILES
1,303.5 Å²,CCCCCCCCCCC=CCC=CCC(=O)OC[C@H](CO[C@@H]1O[C@H](CO[C@H]2O[C@H](CO)[C@H](O)C(O)C2O)[C@H](O)C(O)C1O)OC(=O)CC=CCC=CCCCCCCCCCC (stereo partly specified) [DGDG(16:1/18:3)]
2,296.3 Å²,CCCCCCCC=CCC=CCC=CCC(=O)OC[C@H](CO[C@@H]1O[C@H](CO[C@H]2O[C@H](CO)[C@H](O)C(O)C2O)[C@H](O)C(O)C1O)OC(=O)CC=CCC=CCC=CCCCCCCC (stereo partly specified) [DGDG(16:3/18:3)]
3,307.5 Å²,CCCCCCCCCCCCCC=CCC(=O)OC[C@H](CO[C@@H]1O[C@H](CO[C@H]2O[C@H](CO)[C@H](O)C(O)C2O)[C@H](O)C(O)C1O)OC(=O)CC=CCCCCCCCCCCCCC (stereo partly specified) [DGDG(16:0/18:2)]
4,303.2 Å²,CCCCCCCCC=CCC=CCC=CCC(=O)OC[C@H](CO[C@@H]1O[C@H](CO[C@H]2O[C@H](CO)[C@H](O)C(O)C2O)[C@H](O)C(O)C1O)OC(=O)CC=CCC=CCC=CCCCCCCCC (stereo partly specified) [DGDG(18:3/18:3)]
5,290.1 Å²,CCCCCC/C=C\CCCCCCCCCC(=O)OC(COC(=O)CCCCCCCCCCCCCCC)CO[C@@H]1O[C@@H](C(=O)O)[C@H](O)[C@H](O)[C@H]1O (stereo partly specified) [GlcADG(16:0/18:1)]
6,286 Å²,CCCCCCCCCCCCCCCC(=O)OCC(CO[C@@H]1O[C@@H](C(=O)O)[C@H](O)[C@H](O)[C@H]1O)OC(=O)CCCCCCCCCCCCCCC (stereo partly specified) [GlcADG(16:0/16:0)]
7,309 Å²,CCCCCCCCCCCCCC=CCC(=O)OC[C@H](CO[C@@H]1O[C@H](CO[C@H]2O[C@H](CO)[C@H](O)C(O)C2O)[C@H](O)C(O)C1O)OC(=O)CC=CCCCCCCCCCCCCC (stereo partly specified) [DGDG(34:2)]

# Same assay, conditions: [M+Na]+; instrument: TW; calibrated with phosphatidylcholines (ESI+) and phosphatidylethanolamines (ESI-)
row,collision cross section (N2),SMILES
1,301.1 Å²,CCCCCCCCCCC=CCC=CCC(=O)OC[C@H](CO[C@@H]1O[C@H](CO[C@H]2O[C@H](CO)[C@H](O)C(O)C2O)[C@H](O)C(O)C1O)OC(=O)CC=CCC=CCCCCCCCCCC (stereo partly specified) [DGDG(16:1/18:3)]
2,294.9 Å²,CCCCCCCC=CCC=CCC=CCC(=O)OC[C@H](CO[C@@H]1O[C@H](CO[C@H]2O[C@H](CO)[C@H](O)C(O)C2O)[C@H](O)C(O)C1O)OC(=O)CC=CCC=CCC=CCCCCCCC (stereo partly specified) [DGDG(16:3/18:3)]
3,306.5 Å²,CCCCCCCCCCCCCC=CCC(=O)OC[C@H](CO[C@@H]1O[C@H](CO[C@H]2O[C@H](CO)[C@H](O)C(O)C2O)[C@H](O)C(O)C1O)OC(=O)CC=CCCCCCCCCCCCCC (stereo partly specified) [DGDG(16:0/18:2)]
4,301.9 Å²,CCCCCCCCC=CCC=CCC=CCC(=O)OC[C@H](CO[C@@H]1O[C@H](CO[C@H]2O[C@H](CO)[C@H](O)C(O)C2O)[C@H](O)C(O)C1O)OC(=O)CC=CCC=CCC=CCCCCCCCC (stereo partly specified) [DGDG(18:3/18:3)]
5,288.1 Å²,CCCCCC/C=C\CCCCCCCCCC(=O)OC(COC(=O)CCCCCCCCCCCCCCC)CO[C@@H]1O[C@@H](C(=O)O)[C@H](O)[C@H](O)[C@H]1O (stereo partly specified) [GlcADG(16:0/18:1)]
6,289.5 Å²,CCCCCCCCCCCCCCCC(=O)OC[C@H](COP(=O)(O)O[C@H]1C(O)C(O)C(O)[C@@H](O)C1O)OC(=O)CCCCCCCCCCCCCCC (stereo partly specified) [PI(16:0/16:0)]
7,282.6 Å²,CCCCCCCCCCCCCCCC(=O)OCC(CO[C@@H]1O[C@@H](C(=O)O)[C@H](O)[C@H](O)[C@H]1O)OC(=O)CCCCCCCCCCCCCCC (stereo partly specified) [GlcADG(16:0/16:0)]
8,294.3 Å²,CCCCCC/C=C\CCCCCCCCCC(=O)OC(COC(=O)CCCCCCCCCCCCCCC)COP(=O)([O-])OCC(O)COC(=O)C(C)[NH3+] (stereo unspecified) [AlaPG(34:1)]
9,305.2 Å²,CCCCCCCCCCCCCC=CCC(=O)OC[C@H](CO[C@@H]1O[C@H](CO[C@H]2O[C@H](CO)[C@H](O)C(O)C2O)[C@H](O)C(O)C1O)OC(=O)CC=CCCCCCCCCCCCCC (stereo partly specified) [DGDG(34:2)]

# Same assay, conditions: [M-H]-; instrument: TW; calibrated with phosphatidylcholines (ESI+) and phosphatidylethanolamines (ESI-)
row,collision cross section (N2),SMILES
1,264.5 Å²,CCCCC/C=C\CCCCCCCC(=O)OC[C@H](COP(=O)(O)OC[C@@H](O)CO)OC(=O)CCCCCCC/C=C\CCCCCCCC [PG(33:2)]
2,261 Å²,CCCCCCCCCCCCCCCCCCCCC(=O)O[C@H](COC(=O)CCCCCCCCCCCCC)COP(=O)(O)O [PA(35:0)]
3,301.4 Å²,CCCCCCCCCCC=CCC=CCC(=O)OC[C@H](CO[C@@H]1O[C@H](CO[C@H]2O[C@H](CO)[C@H](O)C(O)C2O)[C@H](O)C(O)C1O)OC(=O)CC=CCC=CCCCCCCCCCC (stereo partly specified) [DGDG(16:1/18:3)]
4,264.5 Å²,CCCCCCCCCCCCCCCCC(=O)O[C@H](COC(=O)CCCCCCCCCCCCCC)COP(=O)(O)OC[C@@H](O)CO [PG(16:0/16:0)]
5,296.1 Å²,CCCCCCCC=CCC=CCC=CCC(=O)OC[C@H](CO[C@@H]1O[C@H](CO[C@H]2O[C@H](CO)[C@H](O)C(O)C2O)[C@H](O)C(O)C1O)OC(=O)CC=CCC=CCC=CCCCCCCC (stereo partly specified) [DGDG(16:3/18:3)]
6,260.2 Å²,CCCCCC/C=C\CCCCCCCC(=O)O[C@H](COC(=O)CCCCCCCCCCCCCC)COP(=O)(O)OC[C@@H](O)CO [PG(31:1)]
7,256.8 Å²,CCC/C=C\C/C=C\CCCCCCCC(=O)O[C@H](CO/C=C\CCCCCCCCCCCCC)COP(=O)(O)OC[C@@H](O)CO [PG(p31:2)]
8,301.9 Å²,CCCCCCCCCCCCCC=CCC(=O)OC[C@H](CO[C@@H]1O[C@H](CO[C@H]2O[C@H](CO)[C@H](O)C(O)C2O)[C@H](O)C(O)C1O)OC(=O)CC=CCCCCCCCCCCCCC (stereo partly specified) [DGDG(16:0/18:2)]
9,257.6 Å²,CCCCCCCCCCCCCCCCCCCCCC(=O)OC[C@H](COP(=O)(O)O)OC(=O)CCCCCCCCCCC [PA(34:0)]
10,257.1 Å²,CCCCCCC/C=C\CCCCCCCC(=O)O[C@H](COC(=O)CCCCCCCCCCCC)COP(=O)(O)OC[C@@H](O)CO [PG(30:1)]
11,303.3 Å²,CCCCCCCCC=CCC=CCC=CCC(=O)OC[C@H](CO[C@@H]1O[C@H](CO[C@H]2O[C@H](CO)[C@H](O)C(O)C2O)[C@H](O)C(O)C1O)OC(=O)CC=CCC=CCC=CCCCCCCCC (stereo partly specified) [DGDG(18:3/18:3)]
12,291.5 Å²,CCCCCCCCCCCCCCCC(=O)OCC(COP(=O)([O-])OCC(O)COC(=O)C(N)CCCC[NH3+])OC(=O)CCCCCCCCCCCCCCC (stereo unspecified) [LysPG(16:0/16:0)]
13,266.6 Å²,CCCCC/C=C\C/C=C\CCCCCCCC(=O)O[C@H](CO/C=C\CCCCCCCCCCCCCC)COP(=O)(O)OC[C@@H](O)CO [PG(p34:2)]
14,253.1 Å²,CCCCCCCCCCCCCCC(=O)O[C@H](COC(=O)CCCCCCCCCCCC)COP(=O)(O)OC[C@@H](O)CO [PG(28:0)]
15,272.7 Å²,CCCCCC/C=C\CCCCCCCCCC(=O)OC(COC(=O)CCCCCCCCCCCCCCC)CO[C@@H]1O[C@@H](C(=O)O)[C@H](O)[C@H](O)[C@H]1O (stereo partly specified) [GlcADG(16:0/18:1)]
16,280.9 Å²,CCCCCCCCCCCCCCCC(=O)OC[C@H](COP(=O)(O)O[C@H]1C(O)C(O)C(O)[C@@H](O)C1O)OC(=O)CCCCCCCCCCCCCCC (stereo partly specified) [PI(16:0/16:0)]
17,254.5 Å²,CCCCCCCCCCCCCCCCCCCCC(=O)O[C@H](COC(=O)CCCCCCCCCCC)COP(=O)(O)O [PA(33:0)]
18,267.9 Å²,CCCCCCCCCCCCCCCC(=O)OCC(CO[C@@H]1O[C@@H](C(=O)O)[C@H](O)[C@H](O)[C@H]1O)OC(=O)CCCCCCCCCCCCCCC (stereo partly specified) [GlcADG(16:0/16:0)]
19,268.6 Å²,CCCCCCCCCCCCCCCCCCCCC(=O)OC[C@H](COP(=O)(O)OC[C@@H](O)CO)OC(=O)CCCCCCCCCCC [PG(33:0)]
20,268.6 Å²,CCCCCC/C=C\CCCCCCCC(=O)O[C@H](CO/C=C\CCCCCCCCCCCCCCCC)COP(=O)(O)OC[C@@H](O)CO [PG(p34:1)]

# Conditions: [M+Na]+; instrument: DT; stepped-field
row,collision cross section (N2),SMILES
1,295.6 Å²,CC/C=C\C/C=C\C/C=C\C/C=C\C/C=C\CCCC(=O)OC[C@H](COP(=O)(O)OCCN)OC(=O)CCCCC/C=C\C/C=C\C/C=C\C/C=C\CCCCC [PE(42:9)]
2,291 Å²,CC/C=C\C/C=C\C/C=C\C/C=C\C/C=C\CCCCCC(=O)O[C@H](COC(=O)CCC/C=C\C/C=C\C/C=C\C/C=C\C/C=C\CC)COP(=O)(O)OCCN [PE(42:10)]
3,287.2 Å²,CCCCC/C=C\C/C=C\C/C=C\CCCCCCC(=O)O[C@H](COC(=O)CCCCCCC/C=C\C/C=C\CCCCC)COP(=O)(O)OCCN [PE(38:5)]
